Measured values: PubChem BioAssay AID493191 (Broad Institute, 2011)

tested on: MALME3 melanoma viability, CellTiter-Glo luminescence, 24 h; assay: growth inhibition of MALME3 cells – cell-based, CellTiter-Glo, cherry-picked, orthogonal assay for MITF inhibitor project, dose response (AID 493191)

Point of comparison: `CC(C)(C)C(=O)Cn1ncc(Cl)c(Cl)c1=O`, AC50 18 µM. Against it:
- Cc1cccc(NC2=C(NC(=O)c3ccccc3)C(=O)c3ccccc3C2=O)c1 — within 1.5-fold, 25.3 µM
- Oc1ccc(CNc2ccccc2F)c2cccnc12 — 1.6-fold higher, 28.2 µM
- O=C(CCl)N1N=C(c2ccco2)CC1c1cccs1 (centres undefined) — within 1.5-fold, 23 µM
- O=C(Nc1ccc2oc(-c3cccnc3)nc2c1)c1ccc([N+](=O)[O-])o1 — within 1.5-fold, 25.9 µM
- C=Cc1ncc(OC)c2c1[nH]c1ccccc12 — 1.8-fold higher, 31.5 µM
- CS(=O)(=O)c1ncc(Cl)c(C(=O)Nc2ccc(N3CCOCC3)cc2)n1 — 1.7-fold lower, 10.7 µM
- CCOC(=O)c1ccc(NC2=CC(=O)C(=O)c3ccccc32)cc1 — 3.5-fold lower, 5.16 µM
- CN(C)CCNC(=O)/C(=C/c1ccc(-c2ccc(Cl)cc2Cl)o1)NC(=O)c1ccccc1 — the same, 18 µM
- Cc1ccc(NC(=O)c2cc(N3C(=O)C=CC3=O)ccc2N2CCOCC2)cc1 — 1.8-fold lower, 10.1 µM
- COc1ccc(NC(=O)CCC(=O)N/N=C/c2ccc([N+](=O)[O-])s2)cc1 — 1.6-fold higher, 28.2 µM
- CC[n+]1c(-c2ccccc2)c2cc(N)ccc2c2ccc(N)cc21 — within 1.5-fold, 23.3 µM
- CCN(CC)CCNC(=O)c1ccc(NC(=O)c2cn(-c3ccccc3)nc2-c2cccs2)cc1 — within 1.5-fold, 17.8 µM
- O=C(N/N=C/c1ccc([N+](=O)[O-])s1)C(O)c1ccccc1 (centres undefined) — within 1.5-fold, 22.7 µM
- c1ccc(CSc2nnc(-c3ccco3)n2Cc2ccco2)cc1 — within 1.5-fold, 26.4 µM
- Cc1ccc(Oc2c(C(N)=O)cc([N+](=O)[O-])cc2[N+](=O)[O-])cc1 — within 1.5-fold, 25.9 µM
- CC1CC2(C)Oc3ccccc3CC2C(C)C1CNCCCN(C)C (centres undefined) — within 1.5-fold, 15.9 µM
- CCC(C)(C)c1ccc(OCCCC[n+]2ccccc2)c(C(C)(C)CC)c1 — 1.7-fold lower, 10.8 µM
- Cc1[nH]c2ccccc2c1C(=O)CCl — 1.5-fold higher, 27.6 µM
- CCCCN1C=CC(=C2C(=O)c3ccccc3C2=O)C=C1 — 1.5-fold higher, 27.3 µM
- COC(=O)C1=C(C)N(Cc2ccccc2)C(=NCC(C)C)N[C@H]1c1cccc(C(F)(F)F)c1 — within 1.5-fold, 16.9 µM
- CCOC(=O)CSC1=NC(=O)/C(=C/c2ccc(OC)cc2)S1 — 5-fold lower, 3.6 µM
- Cc1nc2ccccc2n1/N=C/c1ccc([N+](=O)[O-])s1 — within 1.5-fold, 26.4 µM
- CC(C)C(=O)N1CCN(c2ccc(NC(=O)c3ccc([N+](=O)[O-])o3)cc2)CC1 — within 1.5-fold, 12.8 µM
- O=c1c2ccccc2nc(/C=C/c2ccc([N+](=O)[O-])o2)n1-c1ccc(O)cc1 — within 1.5-fold, 14.5 µM
- Cc1ccc(NC2=C(Cl)C(=O)c3ccccc3C2=O)cc1 — 2.6-fold lower, 6.96 µM
- COc1ccc(C(=O)/C=C/C(=O)N(CC(=O)NC2CCCCC2)Cc2ccccc2)c(O)c1 — 2.6-fold lower, 6.88 µM
- COc1ccccc1OCC(=O)N/N=C/C=C/c1ccc([N+](=O)[O-])o1 — within 1.5-fold, 20.6 µM
- CC(=O)c1c(C)oc2c1C(=O)c1ccccc1C2=O — within 1.5-fold, 21.2 µM
- O=C(Cn1ncc(Cl)c(Cl)c1=O)NCC1CCCCC1 — 1.8-fold lower, 9.94 µM
- CC(=O)Nc1ccc(NC(=O)c2nc(S(=O)(=O)Cc3ccccc3)ncc2Cl)cc1 — 3.5-fold lower, 5.12 µM
- Cc1cc2ncn(/N=C/c3ccc([N+](=O)[O-])o3)c2cc1C — within 1.5-fold, 15.9 µM
- O=C(Cn1ncc(Cl)c(Cl)c1=O)NC1CCCCC1 — within 1.5-fold, 24.8 µM
- CC(C)(C)NC(=O)CCN(/N=C/c1ccc([N+](=O)[O-])o1)C1=NS(=O)(=O)c2ccccc21 — 1.8-fold higher, 31.9 µM
- O=C1NC2c3c(I)sc(I)c3C(=O)C2O1 (centres undefined) — within 1.5-fold, 16.6 µM
- O=C(CNC(=O)c1ccccc1)N/N=C/c1ccc([N+](=O)[O-])s1 — within 1.5-fold, 26.2 µM
- Cc1ccc(NCC(=O)N/N=C\c2ccc([N+](=O)[O-])o2)cc1 — within 1.5-fold, 25.3 µM
- COc1cc(/C=N/N=C(N)N)ccc1OCc1ccc(Cl)cc1 — within 1.5-fold, 19.9 µM
- COc1ccc(C(=O)/C(C#N)=N/Nc2ccc([N+](=O)[O-])cc2)cc1 — within 1.5-fold, 16 µM
- CCN1c2ccccc2NC2N=C(OC)C(c3ccccc3)C21 (centres undefined) — 2.5-fold lower, 7.13 µM
- COc1ccc(-c2cc3c(nn2)-c2ccccc2C3=O)cc1 — within 1.5-fold, 14.5 µM
- CC1=CC2/C=C(\C)CCC(O)C(O)/C=C/C(=O)C23C(=O)NC(CC(C)C)C3C1C (centres undefined) — within 1.5-fold, 12.6 µM
- Cc1ccc([N+](=O)[O-])cc1N1C(=O)CS/C1=N\NC(=O)c1cccnc1 — within 1.5-fold, 24.2 µM
- COc1ccc(S(=O)(=O)N(C(C)=O)c2ccc(OC(C)=O)c3ccccc23)cc1[N+](=O)[O-] — within 1.5-fold, 18.1 µM
- C=CCn1c(C)cc(C2=NNC(=NCC)SC2)c1C — within 1.5-fold, 17.6 µM
- CCc1ccccc1NC(=O)CN(C)C(=O)Cn1ncc(Cl)c(Cl)c1=O — 1.5-fold lower, 11.8 µM
- CCN(CC)CCNC(=O)c1c(C)n(-c2ccccc2)c2cc(Br)c(OC)cc12 — within 1.5-fold, 18.9 µM
- Cc1cc(NC(=O)c2ccc([N+](=O)[O-])o2)ccc1NC(=O)c1ccco1 — within 1.5-fold, 12.5 µM
- CCOC(=O)c1ccc(NC(=O)c2nc(S(=O)(=O)Cc3ccccc3)ncc2Cl)cc1 — 4-fold lower, 4.47 µM
- CCOC(=O)c1cc([N+](=O)[O-])c([N+](=O)[O-])cc1NC(C)=O — 1.7-fold higher, 29.9 µM
- O=C(N/N=C/c1ccc(O)c2ncccc12)c1cccc(Br)c1 — within 1.5-fold, 14.7 µM
- Cc1ccccc1OCC(=O)N/N=C/c1ccc([N+](=O)[O-])o1 — within 1.5-fold, 26.3 µM
- C#CCCc1ccccc1/C=[N+](/C)[O-] — 1.6-fold higher, 28.8 µM
- Cc1ccc(-c2nnc(SCC(=O)Nc3ccccc3F)o2)cc1 — within 1.5-fold, 19.7 µM
